Patent US8217066B2, “Compounds as lysophosphatidic acid receptor antagonists” (Amira Pharmaceuticals, Inc., priority 2009, dated 2012)

Biological target: T1, human LPA1 (Homo sapiens, UniProt Q92633)
T1 construct: the full-length cDNA for human LPA1 was obtained by PCR of the reverse transcription reaction; expressed in transfected cells
Assay: LPA1 calcium flux assay (HLPA1 Ca Flux)
Format: cell-based
Conditions: CHO cells stably expressing human LPA1, stimulated with 10 nM LPA
Protocol: A 1.1 kb cDNA encoding the human LPA1 receptor was cloned from human lung. Human lung RNA (Clontech Laboratories, Inc. USA) was reverse transcribed using the RETROscript kit (Ambion, Inc.) and the full-length cDNA for human LPA1 was obtained by PCR of the reverse transcription reaction. The nucleotide sequence of the cloned human LPA1 was determined by sequencing and confirmed to be identical to the published human LPA1 sequence (An et al. Biochem. Biophys. Res. Commun. 231:619 (1997). The cDNA was cloned into the pcDNA5/FRT expression plasmid and transfected in CHO cells using lipofectamine 2000 (Invitrogen Corp., USA). Clones stably expressing human LPA1 were selected using hygromycin and identified as cells that show Ca-influx in response to LPA.
Human LPA1 or LPA3 expressing CHO cells are seeded at 20,000-45,000 cells per well in a 96-well poly-D-lysine coated plate one or two days before the assay. Prior to the assay, the cells are washed once with PBS and then cultured in serum-free media overnight. On the day of the assay, a calcium indicator dye (Calcium 4, Molecular Devices) in assay buffer (HBSS with Ca^2+ and Mg^2+ and containing 20 mM Hepes and 0.3% fatty-acid free human serum albumin) is added to each well and incubation continued for 1 hour at 37° C. […] of test compounds in 2.5% DMSO are added to the cells and incubation continued at room temperature for 30 minutes. Cells are the stimulated by the addition of 10 nM LPA and intracellular Ca^2+ measured using the Flexstation 3 (Molecular Devices). IC50s are determined using Graphpad prism analysis of drug titration curves.

T1 sequence (Q92633 whole entry): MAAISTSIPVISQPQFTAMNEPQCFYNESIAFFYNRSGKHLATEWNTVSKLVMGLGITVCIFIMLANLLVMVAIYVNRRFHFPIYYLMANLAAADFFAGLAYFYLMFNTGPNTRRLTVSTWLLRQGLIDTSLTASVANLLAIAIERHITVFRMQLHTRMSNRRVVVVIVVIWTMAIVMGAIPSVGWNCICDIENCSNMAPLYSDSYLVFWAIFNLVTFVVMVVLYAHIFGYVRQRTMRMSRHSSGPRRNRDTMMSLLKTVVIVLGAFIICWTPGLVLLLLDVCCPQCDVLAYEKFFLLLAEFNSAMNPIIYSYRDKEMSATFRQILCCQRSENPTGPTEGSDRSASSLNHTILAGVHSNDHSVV

`Cc1noc(-c2ccc(-c3ccc(C4(C(=O)O)CC4)cc3)cc2)c1COC(C)Cc1ccccc1` (stereo not drawn) [Compound 9, 1-{4′-[3-Methyl-4-(1-methyl-2-phenyl-ethoxymethyl)-isoxazol-5-yl]-biphenyl-4-yl}-cyclopropanecarboxylic acid] and `Cc1noc(-c2ccc(-c3ccc(C4(C(=O)O)CC4)cc3)cc2)c1COCCc1ccccc1` [Compound 8, 1-[4′-(3-Methyl-4-phenethyloxymethyl-isoxazol-5-yl)-biphenyl-4-yl]-cyclopropanecarboxylic acid] cannot be ordered by IC50: < 300 nM for the first, < 300 nM for the second.

`Cc1noc(-c2ccc(-c3ccc(C4(C(=O)O)CC4)cc3)cc2)c1C(O)CCCc1ccc(C(F)(F)F)cc1` (stereo not drawn) [Compound 39, 1-(4′-{4-[1-Hydroxy-4-(4-trifluoromethyl-phenyl)-butyl]-3-methyl-isoxazol-5-yl}-biphenyl-4-yl)-cyclopropanecarboxylic acid] and `Cc1noc(-c2ccc(-c3ccc(C4(C(=O)O)CC4)cc3)cc2)c1C(O)C(F)(F)CCc1ccc(C(F)(F)F)cc1` (stereo not drawn) [Compound 64, 1-(4′-{4-[2,2-Difluoro-1-hydroxy-4-(4-trifluoromethyl-phenyl)-butyl]-3-methyl-isoxazol-5-yl}-biphenyl-4-yl)-cyclopropanecarboxylic acid] cannot be ordered by IC50: < 300 nM for the first, < 300 nM for the second.

`Cc1noc(-c2ccc(-c3ccc(C4(C(=O)O)CC4)cc3)cc2)c1C(O)COCCc1ccccc1` (stereo not drawn) [Compound 59, 1-{4′-[4-(1-Hydroxy-2-phenethyloxy-ethyl)-3-methyl-isoxazol-5-yl]-biphenyl-4-yl}-cyclopropanecarboxylic acid] and `Cc1noc(-c2ccc(-c3ccc(C4(C(=O)O)CC4)cc3)cc2)c1C(O)CCc1ccccc1` (stereo not drawn) [Compound 34, 1-{4′-[4-(1-Hydroxy-3-phenyl-propyl)-3-methyl-isoxazol-5-yl]-biphenyl-4-yl}-cyclopropanecarboxylic acid] cannot be ordered by IC50: < 300 nM for the first, < 300 nM for the second.

`Cc1noc(-c2ccc(-c3ccc(C4(C(=O)O)CC4)cc3)cc2)c1CCNCc1ccccc1` [Compound 28, 1-{4′-[4-(2-Benzylamino-ethyl)-3-methyl-isoxazol-5-yl]-biphenyl-4-yl}-cyclopropanecarboxylic acid] and `Cc1noc(-c2ccc(-c3ccc(C4(C(=O)O)CC4)cc3)cc2)c1CNCCc1ccccc1` [Compound 5, 1-{4′-[3-Methyl-4-(phenethylamino-methyl)-isoxazol-5-yl]-biphenyl-4-yl}-cyclopropanecarboxylic acid] fall in the same range of IC50: 300 to 1000 nM for the first, 300 to 1000 nM for the second.

`Cc1noc(-c2ccc(-c3ccc(C4(C(=O)O)CC4)cc3)cc2)c1C(O)CSCc1cccc(C(F)(F)F)c1` (stereo not drawn) [Compound 63, 1-(4′-{4-[1-Hydroxy-2-(3-trifluoromethyl-benzylsulfanyl)-ethyl]-3-methyl-isoxazol-5-yl}-biphenyl-4-yl)-cyclopropanecarboxylic acid] and `Cc1noc(-c2ccc(-c3ccc(C4(C(=O)O)CC4)cc3)cc2)c1C(O)CCc1cccc(C(F)(F)F)c1` (stereo not drawn) [Compound 35, 1-(4′-{4-[1-Hydroxy-3-(3-trifluoromethyl-phenyl)-propyl]-3-methyl-isoxazol-5-yl}-biphenyl-4-yl)-cyclopropanecarboxylic acid] cannot be ordered by IC50: < 300 nM for the first, < 300 nM for the second.

`Cc1noc(-c2ccc(-c3ccc(C4(C(=O)O)CC4)cc3)cc2)c1C(O)COCc1cccc(C(F)(F)F)c1` (stereo not drawn) [Compound 58, 1-(4′-{4-[1-Hydroxy-2-(3-trifluoromethyl-benzyloxy)-ethyl]-3-methyl-isoxazol-5-yl}-biphenyl-4-yl)-cyclopropanecarboxylic acid] and `Cc1noc(-c2ccc(-c3ccc(C4(C(=O)O)CC4)cc3)cc2)c1C(O)CC(C)(C)Cc1ccccc1` (stereo not drawn) [Compound 70, 1-{4′-[4-(1-Hydroxy-3,3-dimethyl-4-phenyl-butyl)-3-methyl-isoxazol-5-yl]-biphenyl-4-yl}-cyclopropanecarboxylic acid] cannot be ordered by IC50: < 300 nM for the first, < 300 nM for the second.

`Cc1noc(-c2ccc(-c3ccc(C4(C(=O)O)CC4)cc3)cc2)c1CCSCc1ccccc1` [Compound 18, 1-{4′-[4-(2-Benzylsulfanyl-ethyl)-3-methyl-isoxazol-5-yl]-biphenyl-4-yl}-cyclopropanecarboxylic acid] and `Cc1noc(-c2ccc(-c3ccc(C4(C(=O)O)CC4)cc3)cc2)c1CCOCc1ccccc1` [Compound 7, 1-{4′-[4-(2-Benzyloxy-ethyl)-3-methyl-isoxazol-5-yl]-biphenyl-4-yl}-cyclopropanecarboxylic acid] cannot be ordered by IC50: < 300 nM for the first, < 300 nM for the second.

`Cc1noc(-c2ccc(-c3ccc(C4(C(=O)NS(=O)(=O)C5CC5)CC4)cc3)cc2)c1C(O)CCCc1ccccc1` (stereo not drawn) [Compound 79] and `Cc1ccc(S(=O)(=O)NC(=O)C2(c3ccc(-c4ccc(-c5onc(C)c5C(O)CCCc5ccccc5)cc4)cc3)CC2)cc1` (stereo not drawn) [Compound 78, N-(1-{4′-[4-(1-Hydroxy-4-phenyl-butyl)-3-methyl-isoxazol-5-yl]-biphenyl-4-yl}-cyclopropanecarbonyl)-4-methyl-benzenesulfonamide] cannot be ordered by IC50: < 300 nM for the first, < 300 nM for the second.

`Cc1noc(-c2ccc(-c3ccc(C4(C(=O)O)CC4)cc3)cc2)c1CCOCc1ccc(Cl)cc1` [Compound 17, 1-(4′-{4-[2-(4-Chloro-benzyloxy)-ethyl]-3-methyl-isoxazol-5-yl}-biphenyl-4-yl)-cyclopropanecarboxylic acid] and `Cc1noc(-c2ccc(-c3ccc(C4(C(=O)O)CC4)cc3)cc2)c1CCOC(C)c1ccccc1` (stereo not drawn) [Compound 14, 1-(4′-{3-Methyl-4-[2-(1-phenyl-ethoxy)-ethyl]-isoxazol-5-yl}-biphenyl-4-yl)-cyclopropanecarboxylic acid] cannot be ordered by IC50: < 300 nM for the first, < 300 nM for the second.

First: Cc1noc(-c2ccc(-c3ccc(C4(C(=O)O)CC4)cc3)cc2)c1CC(O)CCc1ccccc1 (stereo not drawn) [Compound 20, 1-{4′-[4-(2-Hydroxy-4-phenyl-butyl)-3-methyl-isoxazol-5-yl]-biphenyl-4-yl}-cyclopropanecarboxylic acid]
Second: Cc1noc(-c2ccc(-c3ccc(C4(C(=O)O)CC4)cc3)cc2)c1CCC(O)Cc1ccccc1 (stereo not drawn) [Compound 23, 1-{4′-[4-(3-Hydroxy-4-phenyl-butyl)-3-methyl-isoxazol-5-yl]-biphenyl-4-yl}-cyclopropanecarboxylic acid]
The IC50 of the first is lower: < 300 nM for the first, 300 to 1000 nM for the second. The first is the more potent here.

First: Cc1noc(-c2ccc(-c3ccc(C4(C(=O)O)CC4)cc3)cc2)c1NCC(C)Cc1ccc(C(C)C)cc1 (stereo not drawn) [Compound 3, 1-(4′-{4-[3-(4-Isopropyl-phenyl)-2-methyl-propylamino]-3-methyl-isoxazol-5-yl}-biphenyl-4-yl)-cyclopropanecarboxylic acid]
Second: COc1ccc(CCC(C)Nc2c(C)noc2-c2ccc(-c3ccc(C4(C(=O)O)CC4)cc3)cc2)cc1 (stereo not drawn) [Compound 50, 1-(4′-{4-[3-(4-Methoxy-phenyl)-1-methyl-propylamino]-3-methyl-isoxazol-5-yl}-biphenyl-4-yl)-cyclopropanecarboxylic acid]
The IC50 of the first is higher: 300 to 1000 nM for the first, < 300 nM for the second. The second is the more potent here.

First: Cc1noc(-c2ccc(-c3ccc(C4(C(=O)O)CC4)cc3)cc2)c1COCC(C)(O)c1ccccc1 (stereo not drawn) [Compound 19, 1-{4′-[4-(2-hydroxy-2-phenyl-propoxymethyl)-3-methyl-isoxazol-5-yl]-biphenyl-4-yl}-cyclopropanecarboxylic acid]
Second: Cc1noc(-c2ccc(-c3ccc(C4(C(=O)O)CC4)cc3)cc2)c1COCC(C)c1ccccc1 (stereo not drawn) [Compound 11, 1-{4′-[3-Methyl-4-(2-phenyl-propoxymethyl)-isoxazol-5-yl]-biphenyl-4-yl}-cyclopropanecarboxylic acid]
The IC50 of the first is higher: 1000 to 50000 nM for the first, < 300 nM for the second. The second is the more potent here.

Compared with `Cc1noc(-c2ccc(-c3ccc(C4(C(=O)O)CC4)cc3)cc2)c1CCCCc1ccccc1` [Compound 6, 1-{4′-[3-Methyl-4-(4-phenyl-butyl)-isoxazol-5-yl]-biphenyl-4-yl}-cyclopropanecarboxylic acid], `Cc1noc(-c2ccc(-c3ccc(C4(C(=O)O)CC4)cc3)cc2)c1CC(O)CNCc1ccccc1` (stereo not drawn) [Compound 27, 1-{4′-[4-(3-Benzylamino-2-hydroxy-propyl)-3-methyl-isoxazol-5-yl]-biphenyl-4-yl}-cyclopropanecarboxylic acid] is higher in IC50: < 300 nM for the first, 1000 to 50000 nM for the second.

`Cc1noc(-c2ccc(-c3ccc(C4(C(=O)NS(C)(=O)=O)CC4)cc3)cc2)c1CSCCc1ccccc1` [Compound 71, N-[1-[4′-(3-Methyl-4-phenethylsulfanylmethyl-isoxazol-5-yl)-biphenyl-4-yl]-cyclopropanecarbonyl]-methanesulfonamide] and `CCC(CCc1ccccc1)Nc1c(C)noc1-c1ccc(-c2ccc(C3(C(=O)O)CC3)cc2)cc1` (stereo not drawn) [Compound 66, 1-{4′-[4-(1-Ethyl-3-phenyl-propylamino)-3-methyl-isoxazol-5-yl]-biphenyl-4-yl}-cyclopropanecarboxylic acid] cannot be ordered by IC50: < 300 nM for the first, < 300 nM for the second.

First: Cc1noc(-c2ccc(-c3ccc(C4(C(=O)O)CC4)cc3)cc2)c1NC(C)CCc1ccccc1Cl (stereo not drawn) [Compound 53, 1-(4′-{4-[3-(2-Chloro-phenyl)-1-methyl-propylamino]-3-methyl-isoxazol-5-yl}-biphenyl-4-yl)-cyclopropanecarboxylic acid]
Second: Cc1noc(-c2ccc(-c3ccc(C4(C(=O)O)CC4)cc3)cc2)c1CNCC(O)c1ccccc1 (stereo not drawn) [Compound 12, 1-(4′-{4-[(2-Hydroxy-2-phenyl-ethylamino)-methyl]-3-methyl-isoxazol-5-yl}-biphenyl-4-yl)-cyclopropanecarboxylic acid]
The IC50 of the first is lower: < 300 nM for the first, 1000 to 50000 nM for the second. The first is the more potent here.
